Earlier results in PMC2839367 (The Science of the total environment, 2010).

Columns and labels:
[1] = test system: S. cerevisiae BLYES estrogen sensitive strain; conditions: ref Sanseverino et al (2005)
[2] = biological target: human estrogen receptor; conditions: ref Folmar et al (2002)

Substance: nonylphenol
- EC50 [1]: 17 µM
- EC50 [2]: 290 µM
